These results are taken from publication PMC9229949 (Pharmaceutics, 2022).

Like-named read-outs stand apart in the source and are kept apart here.

For test [1], the system named is P. berghei sporozoites in Huh-7 cells. Nature of the test: P. berghei hepatic stages: infection of Huh-7 cells by luciferase-expressing sporozoites. The test is classed as cell-based. The protocol: Huh-7 cells at 1.0 × 10^4 per well were seeded in 96-well plates the day before drug treatment and infection. The culture medium was replaced by infection medium (culture medium supplemented with gentamicin (50 μg/mL) and amphotericin B (0.8 μg/mL)) containing the appropriate concentration of each compound for approximately 1 h prior to infection with sporozoites of firefly luciferase-expressing P. berghei, freshly obtained through the disruption of salivary glands of infected female Anopheles stephensi mosquitoes. An amount of the DMSO solvent equivalent to that present in the highest compound concentration was used as negative control. Sporozoite addition was followed by centrifugation at 1800× g for 5 min. and parasite infection load was measured 48 h after infection by using a bioluminescence assay (Biotium, Hayward, CA, USA). The effect of the compounds on the viability of Huh-7 cells was assessed by performing the AlamarBlue (Invitrogen, Waltham, MA, USA) assay according to the manufacturer’s protocol.

In test [2] the target is T1, human TrxR (hTrxR) (Homo sapiens, UniProt Q16881).
T1 construct: made in house
T1 sequence (Q16881 151-649 limits assumed): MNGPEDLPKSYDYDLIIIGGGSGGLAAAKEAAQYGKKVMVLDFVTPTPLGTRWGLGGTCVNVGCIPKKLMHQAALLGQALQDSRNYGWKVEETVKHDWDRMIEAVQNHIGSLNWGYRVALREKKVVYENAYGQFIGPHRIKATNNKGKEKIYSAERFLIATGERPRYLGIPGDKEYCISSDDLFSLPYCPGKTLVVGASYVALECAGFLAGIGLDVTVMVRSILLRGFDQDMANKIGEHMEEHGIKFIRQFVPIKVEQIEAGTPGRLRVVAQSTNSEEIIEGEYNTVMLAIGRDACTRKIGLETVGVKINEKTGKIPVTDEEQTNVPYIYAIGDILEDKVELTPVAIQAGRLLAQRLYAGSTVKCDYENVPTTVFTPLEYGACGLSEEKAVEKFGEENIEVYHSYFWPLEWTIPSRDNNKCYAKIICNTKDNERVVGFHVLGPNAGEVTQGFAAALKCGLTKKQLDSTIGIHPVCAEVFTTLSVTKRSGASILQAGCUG
Nature of the test: Inhibition of enzymatic activity of recombinant human TrxR. The class given is biochemical. To be noted: recombinant enzyme, 15 min preincubation; mean of one experiment; read-out: IC50 for TrxRs, Human (Sec). Here is the method:
(§1) The codon-optimized sequence for PfTrxR [27, 28] was synthesized and subcloned into pET-15b (Genscript) and expressed and purified as for human glutathione reductase (hGR). Recombinant Schistosoma mansoni (S. mansoni) thioredoxin glutathione reductase (SmTGR), human TrxR (hTrxR), and hGR proteins were expressed and purified as described. TrxR and TGR enzyme inhibition assays were performed in triplicate at 25 °C in 0.1 M potassium phosphate (pH 7.4), 10 mM EDTA, 100 µM NADPH and 0.01% Tween-20. SmTGR (4 nM), hTrxR (4 nM), and PfTrxR (50 nM) were preincubated with the compounds for 15 min. The reaction was started with addition of an equal volume of 5,5′-dithiobis(2-nitrobenzoic acid) (6 mM) and NADPH (100 µM). The increase in A412 during the first 3 min was recorded. […]. The reactions were performed in triplicate. The IC50s were calculated in Prism version 5.01.

Test [3] addresses T2, human glutathione reductase (hGR) (Homo sapiens, UniProt P00390).
T2 construct: made in house
T2 sequence (P00390 44-522): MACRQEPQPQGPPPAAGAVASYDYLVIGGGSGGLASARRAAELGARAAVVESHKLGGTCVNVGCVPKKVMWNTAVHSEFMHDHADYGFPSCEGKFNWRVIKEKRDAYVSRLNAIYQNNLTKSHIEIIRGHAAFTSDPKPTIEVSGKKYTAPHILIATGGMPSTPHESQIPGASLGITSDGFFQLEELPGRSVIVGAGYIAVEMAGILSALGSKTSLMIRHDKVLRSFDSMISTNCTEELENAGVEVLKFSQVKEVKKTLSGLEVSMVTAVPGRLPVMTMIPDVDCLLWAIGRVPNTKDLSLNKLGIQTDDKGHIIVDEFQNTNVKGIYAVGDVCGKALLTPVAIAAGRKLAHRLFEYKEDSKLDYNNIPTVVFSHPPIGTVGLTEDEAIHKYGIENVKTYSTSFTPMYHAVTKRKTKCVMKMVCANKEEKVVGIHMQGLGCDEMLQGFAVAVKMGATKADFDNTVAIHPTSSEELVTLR
Nature of the test: Inhibition of enzymatic activity of recombinant human glutathione reductase. The class given is biochemical. Conditions: recombinant enzyme, 15 min preincubation; mean of one experiment; read-out: IC50, Human GR. Here is the method: as §1

Test [4] deals with T3, S. mansoni thioredoxin-glutathione reductase (SmTGR) (Schistosoma mansoni, UniProt Q962Y6).
T3 construct: made in house
T3 sequence (Q962Y6 1-598): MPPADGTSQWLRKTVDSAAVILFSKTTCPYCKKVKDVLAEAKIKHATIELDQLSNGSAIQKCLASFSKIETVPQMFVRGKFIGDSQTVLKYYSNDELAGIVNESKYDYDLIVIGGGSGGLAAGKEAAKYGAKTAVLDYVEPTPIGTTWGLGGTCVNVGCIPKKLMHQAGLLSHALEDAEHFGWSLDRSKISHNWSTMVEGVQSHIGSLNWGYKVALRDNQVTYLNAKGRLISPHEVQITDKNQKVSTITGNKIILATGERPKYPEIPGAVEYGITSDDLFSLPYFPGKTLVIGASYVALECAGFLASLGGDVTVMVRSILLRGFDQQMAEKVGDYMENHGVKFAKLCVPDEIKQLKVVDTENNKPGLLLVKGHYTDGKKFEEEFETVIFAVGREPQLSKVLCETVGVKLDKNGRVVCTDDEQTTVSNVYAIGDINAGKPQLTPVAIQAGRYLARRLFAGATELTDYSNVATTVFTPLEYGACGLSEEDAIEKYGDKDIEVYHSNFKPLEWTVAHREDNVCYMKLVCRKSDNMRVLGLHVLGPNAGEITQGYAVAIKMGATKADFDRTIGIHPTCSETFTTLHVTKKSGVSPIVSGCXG
Description: Inhibition of enzymatic activity of recombinant S. mansoni thioredoxin glutathione reductase. Conditions: 15 min preincubation, mean of one experiment, read-out: IC50 for TrxRs, S. mansoni (Sec). The class given is biochemical. Here is the method:
as §1

Test [5] relates to 3D7 P. falciparum gametocytes stage V. Description: P. falciparum mature gametocytes (stage V), luciferase viability. The test is classed as cell-based. To be noted: 3D7 strain, 72 h, mean ± S.D. of one experiment, read-out: IC50, gametocytes of P. falciparum, Stage V. Here is the method:
The activity of compounds was assessed against young gametocytes (stages I/III) and against mature gametocytes (stage V). […] A volume of 100 μL of 3D7elo1-pfs16-CBG99 gametocytes of 3D7 P. falciparum at 0.5–1% parasitemia and 2% hematocrit were dispensed. […] Luciferase activity was used to determine gametocytes viability. A volume of 100 µL of culture medium was removed from each well to increase hematocrit; 70 µL of resuspended culture was transferred to a black 96-well plate; 70 µL of D-luciferin (1 mM in citrate buffer 0.1 M, pH 5.5) was added. Luminescence measurements were performed after 10 min with 500 ms integration time. The IC50 was extrapolated from nonlinear regression analysis of the concentration–response curve.

For the molecule `CCN(CC)Cc1cc(Nc2ccnc3cc(Cl)ccc23)ccc1O` [Amodiaquine (AQ), amodiaquine], in test [1] (Plasmodium berghei, Huh-7, 48 h, read-out: Sporozoites (Inhibition of Infection, %)), the inhibition at 10 µM was 71%. In addition, the IC50 in test [2] was 26.5 µM; in test [3], over 66.7 µM; in test [4], 42 µM; in test [5] (Plasmodium falciparum), 23.6 ± 5 µM.

In the case of `[Cl][Au].c1ccc(P(c2ccccc2)c2ccccc2)cc1` [[AuClPPh3]], the “inhibitory activity for the hepatic stages” value in test [1] (up to 10 μM) was “no inhibitory activity”. For the same molecule, the IC50 in test [2] was 0.00065 µM; in test [3] it was 0.00118 µM; in test [4] it was 0.0005 µM; in test [5], 15.2 ± 2.6 µM.

A word on the inhibition: it is how much of the control response was suppressed. The term IC50 denotes the concentration that gives 50% inhibition.
